Experimental data from patent publication US9598405B2, “Thiazole-substituted aminopyridines as spleen tyrosine kinase inhibitors” (Merck Sharp & Dohme Corp., priority 2012, dated 2017).
pIC50: −log10 of the molar value.

Assays:
[1] = molecular target: recombinant human GST-SYK (Homo sapiens (Human), UniProt P43405); test: Homogeneous Time-Resolved Fluorescence (HTRF) assay for the recombinant human Syk enzyme; type: biochemical
Method: Homogeneous Time-Resolved Fluorescence (HTRF) Assay for the Recombinant Human Syk Enzyme
A recombinant GST-hSYK fusion protein was used to measure potency of compounds to inhibit human Syk activity. […] Final volume of the reaction was 10 μL. […] To quench the reaction and detect the phosphorylated product, 2 nM of a Europium-anti-phosphotyrosine antibody (Perkin Elmer #AD0161) and 70 nM SA-APC (Perkin-Elmer #CR130-100) were added together in 15 mM Tris pH 7.5, 40 mM EDTA, 0.01% tween 20. Final volume of the quenching solution was […]. The resulting HTRF signal was measured after 30 minutes on an EnVision (Perkin-Elmer) reader using a time-resolved fluorescence protocol.

[2] = phase II clinical trial, allergic rhinitis; cited from earlier work
PGD2 = conditions: dosed intranasally, phase I/II study, allergic rhinitis; cited from earlier work

Row | pIC50 [1] | Structure (SMILES) | efficacy versus placebo [2] | change in PGD2 (PGD2) | clinical safety (PGD2)
1 | 5.93 | COCc1cc(Nc2cc(C(F)(F)F)ccn2)nc(-c2cnc([C@]3(O)CC[C@@H](C(=O)OC)C(C)(C)C3)s2)c1 (single isomer, unassigned) [Example 4.8, methyl (1R,4S or 1S,4R)-4-hydroxy-4-{5-[4-(methoxymethyl)-6-{[4-(trifluoromethyl)pyridin-2-yl]amino}pyridin-2-yl]-1,3-thiazol-2-yl}-2,2-dimethylcyclohexanecarboxylate] |  |  | 
2 |  | Oc1cccc(Nc2ncc(F)c(Nc3cccc(O)c3)n2)c1 [Example R112] | lack of efficacy | statistically significant decrease | safe across a range of indicators
